Laboratory results as given in PMC10674894 (Viruses, 2023).
Where “and” joins values, the source holds several entries; their conditions need not be identical. Equal values may be shown once. Read-outs that look alike come from different tables or passages of the source.

Columns and labels:
[1] = test system: Vero cells; assay: Cytotoxicity MTT assay in Vero cells (MNTD, CC50); assay type: cell-based, African green monkey
[2] = test system: CHIKV DRDE-07; assay: In vitro screening against CHIKV (CPE inhibition and MTT cell viability); assay type: cell-based, chikungunya virus; settings: for Cell Viability: CHIKV-infected Vero cells treated at MNTD, MTT, cell control + DMSO = 100%; for Cell Viability / % Cell viability: 72 hpi; for CPE / % Cell viability: Table S1, CHIKV-infected Vero cells; for CPE: arbitrary score of cytopathic effect at >48 hpi; for % Cell viability: MTT assay
[3] = Cytotoxicity MTT assay in Vero cells (MNTD, CC50); assay type: cell-based, African green monkey; settings: African green monkey
[4] = test system: CHIKV; assay: Mode of inhibition (time of addition), MTT cell viability; assay type: cell-based, chikungunya virus; settings: for viability at 300 µM: Chikungunya virus
[5] = test system: CHIKV; assay: Cytopathic effect inhibition and cell viability dose-response assay; assay type: cell-based, chikungunya virus
[6] = test system: CHIKV; assay: Plaque assay, CHIKV; assay type: cell-based, chikungunya virus; settings: 300 μM, MOI 0.1
[7] = test system: CHIKV; assay: Immunofluorescence assay, CHIKV E2 mAb; assay type: cell-based, chikungunya virus
[8] = test system: CHIKV-E2 protein; assay: Western blot of CHIKV E2 protein; assay type: cell-based, chikungunya virus; settings: 18 hpi, compared to virus control
[9] = test system: RRV T48 strain; assay: Plaque assay, RRV; assay type: cell-based, Ross River virus; settings: 300 µM; for RRV titer: MOI 0.1; for percent reduction in virus titer: with respect to virus control
[10] = test system: RRV T48 strain; assay: Immunofluorescence and MTT cell viability assays, RRV; assay type: cell-based, Ross River virus; settings: 300 µM, 36 hpi
[11] = maximum nontoxic dose in Vero cells, MTT

| Molecule | MNTD ([1]; Table S1, Vero cells) [µM] | MNTD [1, 11] [µM] | Cell Viability [2] [%] | CPE [2] | % Cell viability [2] [%] | further results |
| --- | --- | --- | --- | --- | --- | --- |
| Nc1nc(N)c2ccc(F)cc2n1 [DCR 136, 7-fluoro-quinazoline-2,4-diamine] | 250 | 250 | 54 | ++ (50-30% (++)) | – | – |
| Nc1nc(N)c2cc(F)ccc2n1 [DCR 137, 6-fluoro-quinazoline-2,4-diamine] | 300 | 300 | – | + (<30%) | – | CC50 at 72 h ([3]; Vero cells, MTT): > 1100 µM; viability at 72 h ([3]; uninfected Vero cells at MNTD, read-out: cell viability at MNTD): ~90%; MNTD value ([1]; Vero cells): > 300 μM and ~ 312 μM; cytotoxicity (cell morphology) ([1]; Vero cells, 312.5 µM, 48 hpi, microscopy): No significant cytotoxicity; viability at 300 µM ([4]; 2 h, read-out: cell viability, post-treatment): > 95%; viability at 300 µM ([4]; read-out: cell viability, pre-treatment): 15%; viability at 300 µM ([4]; read-out: cell viability, simultaneous treatment): 29%; effect of pre-treatment or simultaneous treatment on viral infection ([4]; pre-treatment 24 h or simultaneous 1 h, CHIKV MOI 1): no inhibitory effects; cytopathic effect (microscopy) ([5]; 150 and 300 µM, CHIKV-infected Vero cells): delayed and dose-dependent CPE; EC50 ([5]; Chikungunya virus, Vero, CHIKV replication in Vero cells, post-treatment, MTT at 48 hpi): ~37 µM; CHIKV titer ([6]; 24 hpi, virus control 2.8 × 10^6): 1.8 × 10^2 PFU/mL; CHIKV titer ([6]; 48 hpi, virus control 9.1 × 10^8): 1.9 × 10^5 PFU/mL; viral fluorescence (immunofluorescence) ([7]; 300 µM, CHIKV MOI 0.1, 36 hpi): complete abrogation of viral fluorescence; protection compared to ribavirin ([7]; CHIKV, immunofluorescence, ribavirin positive control): higher protection; CHIKV-E2 protein expression [8]: significant decrease; RRV titer ([9]; 24 hpi, untreated 3.0 × 10^6): 1.1 × 10^2 PFU/mL; percent reduction in virus titer ([9]; 24 hpi): 99.99%; RRV titer ([9]; 48 hpi, untreated 1.2 × 10^8): 1.7 × 10^5 PFU/mL; percent reduction in virus titer ([9]; 48 hpi): 99.85%; green fluorescence (RRV immunofluorescence) [10]: barely detectable |
| Nc1nc(N)c2cc(F)c(F)cc2n1 [DCR 138, 6,7-difluoro-quinazoline-2,4-diamine] | 250 | 250 | 51 | ++ (50-30% (++)) | – | – |
| COc1cccc2nc(N)nc(N)c12 [DCR 139, 5-methoxy-quinazoline-2,4-diamine] | 250 | 250 | 57 | ++ (50-30% (++)) | – | – |
| (E)-N'-(5-bromo-2-methoxybenzylidene)isonicotinohydrazide [DCR39] | 31.25 | – | – | ++++ (>60% (++++)) | 3.81 | – |
| (E)-N'-(5-bromo-2-methoxybenzylidene)nicotinohydrazide [DCR24] | 15.6 | – | – | ++++ (>60% (++++)) | 25.23 | – |
